From patent US4725581A, “New peptide compounds having a lactone or cycloamide structure” (ADIR et Compagnie, priority 1985, dated 1988)

Tests used:
Type in all cases: in vivo
cerebral AMPc = experiment: Stimulation of the synthesis of cerebral AMPc; settings: mice OF1/IFFA-Credo, 10 mg/kg intraperitoneally, five minutes after injection
Procedure: The compounds to be tested are administered intraperitoneally at a dose of 10 mg/kg to mice of strain OF1 /IFFA-Credo.
Five minutes after injection, the animals are sacrificed by freezing and the AMPc present in the cerebral structures is measured by radio immunology according to the Amersham method (specific binding protein).

rats = experiment: Increase in the latency of the onset of sleep induced by Pentobarbital; settings: 10 mg/kg i.p. before pentobarbital 40 mg/kg i.p.
Procedure: Pentobarbital, injected in rats at a dose of 40 mg/kg i.p., induces the onset of sleep.

mice = experiment: Potentialisation of the toxicity of Yohimbine; settings: Yohimbine alone 35 mg/kg i.p.
Procedure: Yohimbine, injected to mice at a dose of 35 mg/kg i.p. causes the death of 10% to 30% treated animals. The compounds of the invention administered at a dose of 10 mg/kg i.p. 15 minutes before the injection of Yohimbine increase the rate of mortality (+80% with compounds of examples 5 and 7).

SMILES: NC(=O)[C@@H]1CCCN1C(=O)[C@H](Cc1c[nH]cn1)NC(=O)[C@@H]1CCC(=O)N1 [TRH, pyroglutamylhistidyl-prolinamide]
- increase of the intracerebral content of AMPc (cerebral AMPc): 46%
- effect on the onset of sleep induced by pentobarbital (in words) (rats): inactive

SMILES: COC(=O)[C@@H]1[C@H]2C[C@H]3c4[nH]c5ccccc5c4CCN3C[C@@H]2CC[C@@H]1O [Yohimbine]
- death of treated animals (mice): 10% to 30
